From PMC7531004, “Discovery of gramicidin A analogues with altered activities by multidimensional screening of a one-bead-one-compound library” (Nature Communications, 2020)
Where a SMILES comes first, the peptide text is derived from it. [ ]: non-standard residue; d: D form. The star is where a group is joined. NHCH2CH2OH = OCCN*; For = O=C*

How the values were obtained:
[1] = H+/Na+ transport assay of bead-derived peptides (one-point); assay type: biochemical; design: key: relative activity; mean of two control wells = 1.00; conditions: bead-derived peptide solution, EYPC/EYPG LUVs;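 note: relative to parent gramicidin A activity set to 1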
Procedure, shortened: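 One-point screen: peptide + pyranine-loaded LUVs, 30 min RT with vortexing, 96-well. Read-out is fluorescence intensity scaled as 100 × (Ix – I0)/(Imax – I0). Imax from Triton X-100, I0 from untreated vesicles, and the mean of the two control wells is set to 1.00.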

[2] = cell viability/%
Procedure, shortened: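 P388 cells at 1 × 10^4 cells/mL (final) were exposed to library peptides (stocks diluted 250-fold in RPMI1640/10% FBS) for 92 h at 37 °C, 5% CO2. Viable cells were counted by WST-1/1-methoxy PMS (4 h), absorbance 415 nm, and expressed as cell viability (%).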

[3] = system: Streptococcus pyogenes SSI-9; assay: Antibacterial activity assay of bead-derived peptides (three concentrations); assay type: cell-based; design: key: +++: inhibition by the 640-fold diluted peptide solution; ++: inhibition by the 160-fold diluted solution; +: inhibition by the 40-fold diluted solution; -: no inhibition; conditions: S. pyogenes, bead-derived peptide solution, three concentrations
Procedure, shortened: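 Undiluted, 4-fold and 16-fold DMSO-diluted peptide stocks; S. pyogenes SSI-9, 2 × 10^5 CFU, cation-adjusted MHB (50 mg/L Ca2+, 25 mg/L Mg2+) + 5% laked horse blood; 37 °C, 18 h; readout = cell pellet visible or not.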

SMILES | H+/Na+ transport activity normalized against the value of 1 (1.00) [1] | viability [2] [%] | antibacterial activity [3]
CC(C)C[C@@H](NC(=O)[C@H](Cc1c[nH]c2ccccc12)NC(=O)[C@@H](CC(C)C)NC(=O)[C@H](Cc1c[nH]c2ccccc12)NC(=O)[C@@H](CC(C)C)NC(=O)[C@H](Cc1c[nH]c2ccccc12)NC(=O)[C@H](NC(=O)[C@@H](NC(=O)[C@H](NC(=O)[C@H](C)NC(=O)[C@H](NC(=O)[C@H](C)NC(=O)CNC(=O)[C@@H](NC=O)C(C)C)C(C)C)C(C)C)C(C)C)[C@H](C)O)C(=O)N[C@@H](Cc1c[nH]c2ccccc12)C(=O)NCCO [compound 10353] (For-VGA[dV]A[dV]V[dT]W[dL]W[dL]W[dL]W-NHCH2CH2OH) | 1.02 | 100 | -
CC(C)C[C@@H](NC(=O)[C@H](C)NC(=O)[C@H](NC(=O)[C@H](C)NC(=O)CNC(=O)[C@@H](NC=O)C(C)C)[C@H](C)O)C(=O)N[C@H](C(=O)N[C@H](CC(C)C)C(=O)N[C@@H](Cc1c[nH]c2ccccc12)C(=O)N[C@@H](C(=O)N[C@@H](Cc1c[nH]c2ccccc12)C(=O)N[C@H](CC(C)C)C(=O)N[C@@H](Cc1c[nH]c2ccccc12)C(=O)N[C@H](CC(C)C)C(=O)N[C@@H](Cc1c[nH]c2ccccc12)C(=O)NCCO)[C@H](C)O)C(C)C [compound 131] (For-VGA[dT]A[dL]V[dL]W[dT]W[dL]W[dL]W-NHCH2CH2OH) | 1.10 | 100 | -
CC(C)C[C@@H](NC(=O)[C@H](C)NC(=O)[C@H](NC(=O)[C@H](C)NC(=O)CNC(=O)[C@@H](NC=O)C(C)C)C(C)C)C(=O)N[C@H](C(=O)N[C@H](CC(C)C)C(=O)N[C@@H](Cc1c[nH]c2ccccc12)C(=O)N[C@@H](C(=O)N[C@@H](Cc1c[nH]c2ccccc12)C(=O)N[C@@H](C(=O)N[C@@H](Cc1c[nH]c2ccccc12)C(=O)N[C@H](CC(C)C)C(=O)N[C@@H](Cc1c[nH]c2ccccc12)C(=O)NCCO)C(C)C)C(C)C)C(C)C [compound 11126] (For-VGA[dV]A[dL]V[dL]W[dV]W[dV]W[dL]W-NHCH2CH2OH) | 1.07 | 8.7 | -
CC(C)C[C@@H](NC(=O)[C@H](C)NC(=O)CNC(=O)[C@@H](NC=O)C(C)C)C(=O)N[C@@H](C)C(=O)N[C@@H](C(=O)N[C@H](C(=O)N[C@@H](C(=O)N[C@@H](Cc1c[nH]c2ccccc12)C(=O)N[C@H](CC(C)C)C(=O)N[C@@H](Cc1c[nH]c2ccccc12)C(=O)N[C@H](CC(C)C)C(=O)N[C@@H](Cc1c[nH]c2ccccc12)C(=O)N[C@@H](C(=O)N[C@@H](Cc1c[nH]c2ccccc12)C(=O)NCCO)C(C)C)C(C)C)C(C)C)C(C)C [compound 6345] (For-VGA[dL]A[dV]V[dV]W[dL]W[dL]W[dV]W-NHCH2CH2OH) | 1.13 | 57.3 | ++
CC(C)C[C@@H](NC(=O)[C@H](Cc1c[nH]c2ccccc12)NC(=O)[C@H](NC(=O)[C@H](Cc1c[nH]c2ccccc12)NC(=O)[C@@H](CC(C)C)NC(=O)[C@@H](NC(=O)[C@H](NC(=O)[C@H](C)NC(=O)[C@H](NC(=O)[C@H](C)NC(=O)CNC(=O)[C@@H](NC=O)C(C)C)C(C)C)C(C)C)C(C)C)[C@H](C)O)C(=O)N[C@@H](Cc1c[nH]c2ccccc12)C(=O)N[C@@H](C(=O)N[C@@H](Cc1c[nH]c2ccccc12)C(=O)NCCO)C(C)C [compound 3161] (For-VGA[dV]A[dV]V[dL]W[dT]W[dL]W[dV]W-NHCH2CH2OH) | 1.00 | 100 | -
CNC(=O)C[C@@H](NC(=O)[C@H](Cc1c[nH]c2ccccc12)NC(=O)[C@H](NC(=O)[C@H](Cc1c[nH]c2ccccc12)NC(=O)[C@@H](CC(C)C)NC(=O)[C@@H](NC(=O)[C@H](NC(=O)[C@H](C)NC(=O)[C@H](NC(=O)[C@H](C)NC(=O)CNC(=O)[C@@H](NC=O)C(C)C)C(C)C)C(C)C)C(C)C)C(C)C)C(=O)N[C@@H](Cc1c[nH]c2ccccc12)C(=O)N[C@@H](C(=O)N[C@@H](Cc1c[nH]c2ccccc12)C(=O)NCCO)C(C)C [compound 3369] (For-VGA[dV]A[dV]V[dL]W[dV]W[dD](NHMe)W[dV]W-NHCH2CH2OH) | 1.00 | 100 | -
CC(C)C[C@@H](NC(=O)[C@H](C)NC(=O)CNC(=O)[C@@H](NC=O)C(C)C)C(=O)N[C@@H](C)C(=O)N[C@@H](C(=O)N[C@H](C(=O)N[C@@H](C(=O)N[C@@H](Cc1c[nH]c2ccccc12)C(=O)N[C@H](CC(C)C)C(=O)N[C@@H](Cc1c[nH]c2ccccc12)C(=O)N[C@H](CC(C)C)C(=O)N[C@@H](Cc1c[nH]c2ccccc12)C(=O)N[C@@H](C(=O)N[C@@H](Cc1c[nH]c2ccccc12)C(=O)NCCO)C(C)C)C(C)C)C(C)C)[C@H](C)O [compound 13002] (For-VGA[dL]A[dT]V[dV]W[dL]W[dL]W[dV]W-NHCH2CH2OH) | 1.33 | 98.3 | -
CC(C)C[C@@H](NC(=O)[C@H](Cc1c[nH]c2ccccc12)NC(=O)[C@H](NC(=O)[C@@H](NC(=O)[C@H](NC(=O)[C@H](C)NC(=O)[C@H](NC(=O)[C@H](C)NC(=O)CNC(=O)[C@@H](NC=O)C(C)C)C(C)C)C(C)C)C(C)C)C(C)C)C(=O)N[C@@H](Cc1c[nH]c2ccccc12)C(=O)N[C@H](CC(C)C)C(=O)N[C@@H](Cc1c[nH]c2ccccc12)C(=O)N[C@@H](C(=O)N[C@@H](Cc1c[nH]c2ccccc12)C(=O)NCCO)[C@H](C)O [compound 4603] (For-VGA[dV]A[dV]V[dV]W[dL]W[dL]W[dT]W-NHCH2CH2OH) | 1.12 | 100 | ++
CC(C)C[C@@H](NC(=O)[C@H](C)NC(=O)CNC(=O)[C@@H](NC=O)C(C)C)C(=O)N[C@@H](C)C(=O)N[C@@H](C(=O)N[C@H](C(=O)N[C@@H](C(=O)N[C@@H](Cc1c[nH]c2ccccc12)C(=O)N[C@@H](C(=O)N[C@@H](Cc1c[nH]c2ccccc12)C(=O)N[C@@H](C(=O)N[C@@H](Cc1c[nH]c2ccccc12)C(=O)N[C@H](CC(C)C)C(=O)N[C@@H](Cc1c[nH]c2ccccc12)C(=O)NCCO)C(C)C)[C@H](C)O)C(C)C)C(C)C)C(C)C [compound 2207] (For-VGA[dL]A[dV]V[dV]W[dT]W[dV]W[dL]W-NHCH2CH2OH) | 1.18 | 100 | -
CC(C)C[C@@H](NC(=O)[C@H](C)NC(=O)[C@H](NC(=O)[C@H](C)NC(=O)CNC(=O)[C@@H](NC=O)C(C)C)[C@H](C)O)C(=O)N[C@H](C(=O)N[C@H](CC(C)C)C(=O)N[C@@H](Cc1c[nH]c2ccccc12)C(=O)N[C@H](CC(C)C)C(=O)N[C@@H](Cc1c[nH]c2ccccc12)C(=O)N[C@H](CC(C)C)C(=O)N[C@@H](Cc1c[nH]c2ccccc12)C(=O)N[C@H](CC(C)C)C(=O)N[C@@H](Cc1c[nH]c2ccccc12)C(=O)NCCO)C(C)C [compound 5618] (For-VGA[dT]A[dL]V[dL]W[dL]W[dL]W[dL]W-NHCH2CH2OH) | 1.13 | 85.1 | -
